According to US4152440A, “Novel derivatives of imidazole, and pharmaceutical compositions containing them” (Hoechst Aktiengesellschaft, priority 1975, dated 1979):

Key:
Oxonat rat [1] = test: Combined metabolic test in the Oxonat rat (Test 2 of Table 2): uric acid in urine and serum; assay type: in vivo, male Wistar rats; settings: for Serum - uric acid / Separation of uric acid in the urine, 3rd day / Serum - uric acid, % of control: 3rd day; for Separation of uric acid in the urine, 1st day: 1st day (urine collected before administration, control value)
Procedure: (§1) In this test series, the uricase activity of the rats' livers is inhibited by the application of potassium oxonate (potassium salt of 2,4-dihydroxy-1,3,5-triazine-(6)-carboxylic acid) and thus a gout-like disorder of the purine metabolism is induced. The animals are tested in two different ways.
(§2) 18 hours before the start of the test, the animals were placed separately in metabolism cages. At the same time they were offered unlimited quantities of a 0.5% potassium oxonate solution to drink. On the 1st day of the test, first the urine samples collected were removed (control value) then the substances to be tested were administered in a 0.5% potassium oxonate solution by oesophageal tube into the stomach. The same operation was repeated on the 2nd day of the test. After removal of the 24 hour urine (1st sample after administration of the preparation) the test substances were administered a second time by oesophageal tube. On the 3rd day of the test, the animals were killed and bled, immediately after the urine samples from the preceding 24 hours had been collected (2nd sample after administration of the preparation). Both in the serum obtained and also in the urine samples, the concentration of uric acid was determined enzymatically, using the uricase method (Uricaquant, Boehringer Mannheim), together with a large number of metabolic parameters.
This test series differs from the diuresis test described in 1) only in the method of administration of the uricase inhibitor. The animals drink water throughout the test and are given the potassium oxonate in a special feed mixture consisting of normal standard rat food to which 5% fructose, 3% uric acid, 2% potassium oxonate and 0.1% sweetener have been added. The administration of the preparations to be tested and the analysis of the urine samples from the 1st, 2nd and 3rd days of the test and of the serum samples obtained on the 3rd day of the test were carried out as described in the diuresis test.

[2] = Acute toxicity (LD50), oral by oesophageal tube; settings: rat, in vivo, rats, mortality within 7 days
Oxonat rat [3] = test: Diuresis test in the Oxonat rat (Test 1 of Table 2): uric acid in urine and serum; assay type: in vivo, male Wistar rats; settings: 25 mg/kg oral, n=8, diuresis test (Test 1)
Procedure: The compounds may therefore be useful as therapeutic agents for various disorders of purine metabolism, particularly in treating primary and secondary gout.
as §1, §2

[4] = 50 mg/kg oral, n=8, comparison preparation, own control group (Test 2)
[5] = 25 mg/kg oral, n=8, combined metabolic test (Test 2)
[6] = 25 mg/kg oral, n=8, combined metabolic test (Test 2), * p<0.05 (Duncan), control 8.64± 3.51

| SMILES | Serum - uric acid (Oxonat rat [1]; 50 mg/kg oral, n=8, comparison preparation (Test 2), own control 6.70± 0.89) | Separation of uric acid in the urine, 1st day (Oxonat rat [1]; [4]) | Separation of uric acid in the urine, 2nd day (Oxonat rat [1]; [4]) | Separation of uric acid in the urine, 3rd day (Oxonat rat [1]; [4]) | Separation of uric acid in the urine, 2nd day (Oxonat rat [1]; [5]) | Separation of uric acid in the urine, 3rd day (Oxonat rat [1]; [5]) | Serum - uric acid, % of control (Oxonat rat [1]; [5]) | Serum - uric acid (Oxonat rat [1]; [6]) | LD50 at 168 h [2] | Separation of uric acid in the urine, 1st day (Oxonat rat [1]; [5]) | Separation of uric acid in the urine, 1st day (Oxonat rat [3]; 1st day (urine collected before administration, control value)) | Separation of uric acid in the urine, 2nd day (Oxonat rat [3]; 2nd day) | Separation of uric acid in the urine, 3rd day (Oxonat rat [3]; 3rd day) | Serum - uric acid, % of control (Oxonat rat [3]; 3rd day) | Serum - uric acid (Oxonat rat [3]; 3rd day, * p<0.05 (Duncan), control 3.50± 1.15) |
| --- | --- | --- | --- | --- | --- | --- | --- | --- | --- | --- | --- | --- | --- | --- | --- |
| Oc1ncnc2[nH]ncc12 [Allopurinol, 1 H-Pyrazolo[3,4-]pyrimidine-4-ol, reference compound] | 6.21± 0.76 mg % | 0.99± 0.51 | 2.16± 0.81 | 3.82± 1.59 | – | – | – | – | – | – | – | – | – | – | – |
| Cn1ccnc1Cc1nnn[nH]1 [Example 1, 1-Methyl-2-(5-tetrazolylmethyl)-imidazole] | – | – | – | – | 3.30± 2.12 | 3.32± 1.94 | -44% | 4.83± 1.69 mg % | > 3150 mg/kg | – | – | – | – | – | – |
| CC(C)n1ccnc1Cc1nn[nH]n1 [Example 3, 1-Isopropyl-2-(5-tetrazolymethyl)-imidazole] | – | – | – | – | 2.25± 0.41 | – | -19% | 6.97± 2.07 mg % | – | 1.68± 0.51 | – | – | – | – | – |
| c1ccc(Cn2ccnc2Cc2nn[nH]n2)cc1 [Example 5, 1-benzyl-2-(5-tetrazolymethyl)-imidazole] | – | – | – | – | 2.76± 1.21 | 2.28± 1.31 | -30% | 6.05± 1.96 mg % | – | 1.78± 0.92 | – | – | – | – | – |
| Cc1ccccc1-n1ccnc1Cc1nnn[nH]1 [Example 11, 1-(o-Tolyl)-2-(5-tetrazolylmethyl)-imidazole] | – | – | – | – | 2.24± 0.57 | 2.33± 1.70 | -31% | 6.00± 1.73 mg % | – | 1.12± 0.64 | – | – | – | – | – |
| c1ccc(Cn2ccnc2-c2nnn[nH]2)cc1 [Example 24, 1-Benzyl-2-(5-tetrazolyl)-imidazole] | – | – | – | – | 2.04± 0.80 | 2.51± 1.55 | -30% | 6.07± 1.63 mg % | > 4000 mg/kg | 1.81± 0.61 | 2.56± 1.14 | 3.97± 1.44 | 3.47± 1.31 | -31% | 2.41± 0.98 mg % |
